Reference: patent EP0970046B1, “N-HYDROXY-2-(ALKYL, ARYL, OR HETEROARYL SULFANYL, SULFINYL OR SULFONYL)-3-SUBSTITUTED ALKYL, ARYL OR HETEROARYLAMIDES AS MATRIX METALLOPROTEINASE INHIBITORS” (Wyeth Holdings Corporation, priority 1997, dated 1998)

Target: T1, TACE (Homo sapiens, UniProt P78536)
T1 construct: purchased Immunex
Assay: Procedure for Measuring TACE Inhibition
Assay type: biochemical
Conditions: 1 µM; Examples 110-168
Method: Using 96-well black microtiter plates, each well receives a solution composed of 10 µL TACE (Immunex, final concentration 1µg/mL), 70µL Tris buffer, pH 7.4 containing 10% glycerol (final concentration 10 mM), and 10 µL of test compound solution in DMSO (final concentration 1µM, DMSO concentration <1%) and incubated for 10 minutes at room temperature. The reaction is initiated by addition of a fluorescent peptidyl substrate (final concentration 100 µM) to each well and then shaking on a shaker for 5 sec. The reaction is read (excitation 340 nm, emission 420 nm) for 10 min. and the increase in fluorescence over time is plotted as a linear line. The slope of the line is calculated and represents the reaction rate. The linearity of the reaction rate is confirmed (r^2 >0.85). The mean (x±sem) of the control rate is calculated and compared for statistical significance (p<0.05) with drug-treated rates using Dunnett's multiple comparison test.

T1 sequence (P78536 215-824): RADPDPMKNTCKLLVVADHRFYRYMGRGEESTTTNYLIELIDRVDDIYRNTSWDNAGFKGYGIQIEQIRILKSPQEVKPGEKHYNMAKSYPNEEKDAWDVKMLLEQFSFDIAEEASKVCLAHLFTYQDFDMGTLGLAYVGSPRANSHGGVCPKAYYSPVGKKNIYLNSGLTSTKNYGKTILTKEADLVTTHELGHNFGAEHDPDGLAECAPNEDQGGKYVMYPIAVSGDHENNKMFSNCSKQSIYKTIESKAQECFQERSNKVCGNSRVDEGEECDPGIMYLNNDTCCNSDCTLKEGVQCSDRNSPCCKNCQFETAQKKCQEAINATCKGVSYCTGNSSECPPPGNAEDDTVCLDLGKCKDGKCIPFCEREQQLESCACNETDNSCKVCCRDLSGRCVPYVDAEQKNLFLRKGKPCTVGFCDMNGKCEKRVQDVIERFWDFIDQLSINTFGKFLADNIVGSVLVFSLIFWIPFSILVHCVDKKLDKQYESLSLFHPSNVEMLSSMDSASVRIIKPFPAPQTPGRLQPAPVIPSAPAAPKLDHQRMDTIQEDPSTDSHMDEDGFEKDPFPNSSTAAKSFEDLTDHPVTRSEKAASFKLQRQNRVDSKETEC

For “(1-Hydroxycarbamoyl-propane-1-sulfonyl)-acetic acid hydroxyamide [Example 120]”, the “TACE % inhibition at 1 µM” value was 19.9%.

Same assay, conditions: 1 µM; Examples 169-240

Point of comparison: “2,5-Dichloro-thiophene-3-sulfonic acid 4-(1-hydroxycarbamoyl-heptylsulfinyl)-hydroxyamide [Example 236]”, “TACE % inhibition at 1 µM” value 35%. Against it:
- 3-(1-Hydroxycarbamoyl-heptylsulfinyl)-benzoicacid hydroxyamide [Example 188] — lower, 16.2%
- CCCCCCC(Sc1ccc(OCCCC)cc1)C(=O)NO (stereo not drawn) [Example 200, 2-(4-Butoxy-benzenesulfanyl)-octanoic acid hydroxyamide] — higher, 37.9%
- Ethanesulfonic acid 4(1-hydroxycarbamoyl-heptylsulfanyl)-hydroxyamide [Example 234] — lower, 18.4%
- 3-(1-Hydroxycarbamoyl-heptylsulfanyl)-benzoic acid hydroxyamide [Example 184] — lower, 24.8%
- CCCCCCC(Sc1ccc(OCCN2CCNCC2)cc1)C(=O)NO (stereo not drawn) [Example 201, 2-[4-(2-Piperazine-1-yl-ethoxy)-benzenesulfanyl]-octanoic acid hydroxyamide] — higher, 50.9%

Same assay, conditions: Examples 169-240; read-out: TACE IC50

Point of comparison: CCCCCCC(C(=O)NO)S(=O)(=O)c1ccc(-c2ccc(Cl)s2)cc1 (stereo not drawn) [Example 224, 2-[4-(5-Chloro-thiophen-2-yl)-benzenesulfonyl]-octanoic acid hydroxyamide], IC50 0.404 µM. Against it:
- CCCCCCC(C(=O)NO)[S+]([O-])c1ccc(-c2ccc(Cl)cc2)cc1 (stereo not drawn) [Example 221, 2-(4'-Chloro-biphenyl-4-sulfinyl)-octanoic acid hydroxyamide] — 2.8-fold lower, 0.146 µM
- CCCCCCC(Sc1ccc(NCCCN2CCOCC2)cc1)C(=O)NO (stereo not drawn) [Example 225, 2-[4-(3-morpholin-4-yl-propylamino)-phenylsulfanyl]-octanoic acid hydroxyamide] — 4.2-fold lower, 0.0966 µM
- CCCCCCC(C(=O)NO)S(=O)(=O)c1ccc(OC2CCN(C)C2)cc1 (stereo not drawn) [Example 218, 2-[4-(1-Methyl-pyrrolidin-3-yloxy)-benzenesulfonyl]-octanoic acid hydroxyamide] — within 1.5-fold, 0.38 µM
- CCCCCCC(C(=O)NO)[S+]([O-])c1ccc(OC2CCN(C)C2)cc1 (stereo not drawn) [Example 215, 2-[4-(1-Methyl-pyrrolidin-3-yloxy)-benzenesulfinyl]-octanoic acid hydroxyamide] — 2.2-fold higher, 0.895 µM
- CCCCCCC(C(=O)NO)[S+]([O-])c1ccc(-c2ccc(Cl)s2)cc1 (stereo not drawn) [Example 222, 2-[4-(5-Chloro-thiophen-2-yl)-benzenesulfinyl]-octanoic acid hydroxyamide] — 1.9-fold lower, 0.212 µM

Same assay, conditions: read-out: TACE % inhibition at 1 µM; 1 µM; Examples 169-240

Point of comparison: CCCCCCC(C(=O)NO)[S+]([O-])c1ccc(OCc2ccccc2)cc1 (stereo not drawn) [Example 204, 2-(4-Benzyloxy-phenylsulfinyl)-octanoic acid hydroxyamide], inhibition at 1 µM 7.75%. Against it:
- CCCCCCC(C(=O)NO)S(=O)(=O)c1ccc(OC(CC)CC)cc1 (stereo not drawn) [Example 219, 2-[4-(1-Ethyl-propoxy)-benzenesulfonyl]-octanoic acid hydroxyamide] — lower, 7.3%
- CCCCCCC(C(=O)NO)[S+]([O-])c1ccc(-c2ccc(Cl)cc2)cc1 (stereo not drawn) [Example 221, 2-(4'-Chloro-biphenyl-4-sulfinyl)-octanoic acid hydroxyamide] — higher, 98.9%
- CCCCCCC(C(=O)NO)S(=O)(=O)c1ccc(OCc2ccccc2)cc1 (stereo not drawn) [Example 208, 2-(4-Benzyloxy-phenylsulfonyl)-octanoic acid hydroxyamide] — higher, 67.7%
- CCCCCCC(Sc1ccc(OCCCCCO)cc1)C(=O)NO (stereo not drawn) [Example 202, 2-[4-(5-Hydroxy-pentyloxy)-phenylsulfanyl]-octanoic acid hydroxyamide] — higher, 10.6%
- CCCCCCC(C(=O)NO)[S+]([O-])c1ccc(OCCCc2ccccn2)cc1 (stereo not drawn) [Example 207, 2-[4-(3-Pyridin-2-yl-propoxy)-benzenesulfinyl]-octanoic acid hydroxyamide] — lower, -6.3%
- CCCCCCC(C(=O)NO)[S+]([O-])c1ccc(OCCCC)cc1 (stereo not drawn) [Example 205, 2-(4-Butoxy-benzenesulfinyl)-octanoic acid hydroxyamide] — higher, 84%
- CCCCCCC(Sc1ccc(NCCCN2CCOCC2)cc1)C(=O)NO (stereo not drawn) [Example 225, 2-[4-(3-morpholin-4-yl-propylamino)-phenylsulfanyl]-octanoic acid hydroxyamide] — higher, 114%
- CCCCCCC(C(=O)NO)S(=O)(=O)c1ccc(OC2CCN(C)C2)cc1 (stereo not drawn) [Example 218, 2-[4-(1-Methyl-pyrrolidin-3-yloxy)-benzenesulfonyl]-octanoic acid hydroxyamide] — higher, 68.7%
- CCCCCCC(C(=O)NO)S(=O)(=O)c1ccc(OCCCc2ccccn2)cc1 (stereo not drawn) [Example 211, 2-[4-(3-Pyridin-2-yl-propoxy)-benzenesulfonyl]-octanoic acid hydroxyamide] — higher, 20.7%
- CCCCCCC(C(=O)NO)S(=O)(=O)c1ccc(OCCCC)cc1 (stereo not drawn) [Example 209, 2-(4-Butoxy-benzenesulfonyl)-octanoic acid hydroxyamide] — higher, 31.2%
- CCCCCCC(C(=O)NO)[S+]([O-])c1ccc(OC2CCN(C)C2)cc1 (stereo not drawn) [Example 215, 2-[4-(1-Methyl-pyrrolidin-3-yloxy)-benzenesulfinyl]-octanoic acid hydroxyamide] — higher, 60.1%
- CCCCCCC(C(=O)NO)S(=O)(=O)c1ccc(-c2ccc(Cl)s2)cc1 (stereo not drawn) [Example 224, 2-[4-(5-Chloro-thiophen-2-yl)-benzenesulfonyl]-octanoic acid hydroxyamide] — higher, 75%
- CCCCCCC(C(=O)NO)[S+]([O-])c1ccc(-c2ccc(Cl)s2)cc1 (stereo not drawn) [Example 222, 2-[4-(5-Chloro-thiophen-2-yl)-benzenesulfinyl]-octanoic acid hydroxyamide] — higher, 89.3%

Same assay, conditions: read-out: TACE % inhibition at 1 micromolar

Point of comparison: CCN1CCC(C(=O)NO)(S(=O)(=O)c2ccc(OC)cc2)CC1 [Example 95, 1-Ethyl-4-(4-methoxy-benzenesulfonyl)-piperidine-4-carboxylic acid hydroxyamide], inhibition at 1 µM 25.4%. Against it:
- C=CCC(CC=C)(C(=O)NO)S(=O)(=O)c1ccc(OC)cc1 [Example 58, 2-allyl-2-(4-methoxy-benzenesulfonyl)-pent-4-enoic acid hydroxyamide] — lower, 7.7%
- COc1ccc(S(=O)(=O)C(C)(Cc2ccc(OCCN(C(C)C)C(C)C)cc2)C(=O)NO)cc1 (stereo not drawn) [Example 20, N-Hydroxy-2-(4-methoxy-benzenesulfonyl)-2-methyl-3-[4-(2-N,N-diisopropylamino-ethoxy)-phenyl]-propionamide] — higher, 31%
- CCN(CC)CCOc1ccc(CC(C)(C(=O)NO)S(=O)(=O)c2ccc(OC)cc2)cc1 (stereo not drawn) [Example 21, N-Hydroxy-2-(4-methoxy-benzenesulfonyl)-2-methyl-3-[4-(2-N,N-diethylamino-ethoxy)-phenyl]-propionamide] — higher, 39%
- COc1ccc(S(=O)(=O)C(C)(Cc2cccnc2)C(=O)NO)cc1 (stereo not drawn) [Example 61, N-hydroxy-2-(4-methoxy-benzenesulfonyl)-2-methyl-3-pyridin-3-yl-propionamide] — lower, 17.2%
- COc1ccc(S(=O)(=O)C(Cc2ccccc2)C(=O)NO)cc1 (stereo not drawn) [Example 9, N-Hydroxy-2-(4-methoxy-benzenesulfonyl)-3-phenyl-propionamide] — lower, 20.3%
- COc1ccc(CS(=O)(=O)C(C)(Cc2ccccc2)C(=O)NO)cc1 (stereo not drawn) [Example 41, N-Hydroxy-2-(4-methoxy-phenylmethanesulfonyl)-2-methyl-3-phenyl propionic acid hydroxamide] — lower, 15.5%
- COc1ccc(S(=O)(=O)C2(C(=O)NO)CCN(C)CC2)cc1 [Example 97, 1-Methyl-4-(4-methoxy-benzenesulfonyl)-piperidine-4-carboxylic acid hydroxyamide] — lower, 20.2%
- CCCCOc1ccc(S(=O)(=O)C2(C(=O)NO)CCN(Cc3ccc(F)cc3)CC2)cc1 [Example 100, 1-(4-Fluoro-benzyl)-4-(4-butoxy-benzenesulfonyl)-piperidine-4-carboxylic acid hydroxyamide] — higher, 39.5%
- COc1ccc([S+]([O-])C(C(=O)NO)c2ccccc2)cc1 (stereo not drawn) [Example 8, N-Hydroxy-2-(4-methoxy-benzenesulfinyl)-2-phenyl-acetamide] — higher, 47%

Same assay, conditions: read-out: TACE IC 50

Point of comparison: COc1ccc(CN2CCC(C(=O)NO)(S(=O)(=O)c3ccc(OC)cc3)CC2)cc1 [Example 101, 4-(4-methoxy-benzenesulfonyl)-1-(4-methoxy-benzyl)-piperidine-4-carboxylic acid hydroxyamide], IC50 0.197 µM. Against it:
- CCCCCCCCC(Cc1cccnc1)(C(=O)NO)S(=O)(=O)c1ccc(OC)cc1 (stereo not drawn) [Example 62, 2-(4-Methoxy-benzenesulfonyl)-2-pyridin-3-ylmethyl-decanoic acid hydroxyamide] — 3.4-fold higher, 0.669 µM
- COc1ccc(S(=O)(=O)C(Cc2ccc3ccccc3c2)C(=O)NO)cc1 (stereo not drawn) [Example 40, N-Hydroxy-2-(4-methoxy-benzenesulfonyl)-3-naphthalen-2-yl-propionamide] — within 1.5-fold, 0.16 µM

Target: MMP 13 (Homo sapiens, UniProt P45452)
Assay: MMP 13 inhibition (HTS; method not described)
Assay type: biochemical
Conditions: 0.2 µM, HTS

With CCC(C(=O)NO)S(=O)(=O)C(C)C(=O)NO (stereo not drawn) [Example 124, (1-Hydroxycarbamoyl-propane-1-sulfonyl)-propionic acid hydroxyamide] the “MMP 13 % inhibition at 0.2 µM (HTS)” value was 0%.

Same assay, conditions: read-out: MMP 13 % inhibition (HTS); HTS

For CCCCCCC(C(=O)NO)S(=O)(=O)c1cccc2cccnc12 (stereo not drawn) [Example 196, 2-(Quinoline-8-sulfonyl)-octanoic acid hydroxyamide], the inhibition was 11%.

Same assay, conditions: read-out: MMP 13 % inhibition at 36 nM (HTS); 36 nM, HTS

Point of comparison: CCCCCCC(C(=O)NO)S(=O)(=O)c1cccc2cccnc12 (stereo not drawn) [Example 196, 2-(Quinoline-8-sulfonyl)-octanoic acid hydroxyamide], inhibition at 0.036 µM -18%. Against it:
- CCCCCCC(Sc1nc2ccccc2o1)C(=O)NO (stereo not drawn) [Example 169, 2-(2-Benzooxazol-2-ylsulfanyl)-octanoic acid hydroxyamide] — higher, 28%
- CCCCCCC(C(=O)NO)[S+]([O-])CC(=O)Nc1ccc2ccccc2c1 (stereo not drawn) [Example 191, 2-(Naphthalen-2-ylcarbamoylmethanesulfinyl)-octanoic acid hydroxyamide] — lower, -45%
- CCCCCCC(Sc1nc2ccccc2s1)C(=O)NO (stereo not drawn) [Example 170, 2-(2-Benzothiazol-2-ylsulfanyl)-octanoic acid hydroxyamide] — higher, 32%

Same assay, conditions: read-out: MMP 13 % inhibition at 0.2 µM (HTS); 0.2 µM, HTS

Point of comparison: CCCCCCCCC(C(=O)NO)[S+]([O-])c1ccc([S+](C)[O-])cc1 (stereo not drawn) [Example 144, 2-(4-methanesulfinyl-benzenesulfinyl)decanoic acid hydroxamide], inhibition at 0.2 µM 38%. Against it:
- O=C(NO)C(Cc1cnc[nH]1)Sc1ccccc1Br (stereo not drawn) [Example 152, 2-(2-bromo-benzenesulfanyl)-N-hydroxy-3-(3H-imidazol-4-yl)-propionamide] — lower, 9%
